Source: patent US10167279B2 (NOVARTIS AG, priority 2014, dated 2019)
pIC50: −log10 of the molar value.

The compounds below were run against C-Raf FL (Homo sapiens (Human), UniProt P04049, Y340E/Y341E) (assay: In vitro Raf activity determination (Alpha Screen, phospho-MEK), C-Raf FL (full length, Y340E/Y341E)). Settings: ATP 1 μM; 60 min pre-incubation; 1 hour reaction; column head does not say FL or TR.
Assay type: biochemical
Description: The activity of a compound according to the present invention can be assessed by well-known in vitro & in vivo methods. Raf inhibition data provided herein was obtained using the following procedures.
Sf9 cells co-expressing both proteins were lysed and subjected to immobilized nickel chromatography and eluted with Imidazole. A second column (StrepII binding column) was used and eluted with desthiobiotin. Protein Tags were removed using Prescission enzyme and the protein was further purified using a flowthrough step to remove tags.
C-Raf TR refers to a truncated C-Raf protein, a Δ1-324 deletion mutant. C-Raf FL refers to the full-length C-Raf protein.
Full length MEK1 with an inactivating K97R ATP binding site mutation is utilized as a RAF substrate. The MEK1 cDNA was subcloned with an N-terminal (his)6 tag into a vector for E. Coli expression. The MEK1 substrate was purified from E. Coli lysate by nickel affinity chromatography followed by anion exchange. The final MEK1 preparation was biotinylated (Pierce EZ-Link Sulfo-NHS-LC-Biotin) and concentrated.
Assay protocol: Raf and biotinylated Mek (kinase dead) were combined at 2× final concentrations in assay buffer (50 mM Tris, pH 7.5, 15 mM MgCl2, 0.01% BSA and 1 mM DTT) and dispensed […] per well in assay plates (Greiner white 384 well assay plates #781207) containing […] of 40× of a Raf kinase inhibitor test compound diluted in 100% DMSO. The plate was incubated for 60 minutes at room temperature. […] The reactions were stopped and the phosphorylated product was measured using a rabbit anti-p-MEK (Cell Signaling, #9121) antibody and the Alpha Screen IgG (ProteinA) detection Kit (PerkinElmer #6760617R), by the addition of […] to the well of a mixture of the antibody (1:2000 dilution) and detection beads (1:2000 dilution of both beads) in Stop/bead buffer (25 mM EDTA, 50 mM Tris, pH 7.5, 0.01% Tween20). The additions were carried out under dark conditions to protect the detection beads from light. A lid was placed on top of the plate and incubated for 1 hour at room temperature, after which the luminescence was read on a PerkinElmer Envision instrument. The concentration of each compound for 50% inhibition (IC50) was calculated by non-linear regression using XL Fit data analysis software.

Sequence of C-Raf FL (P04049 whole entry Y340E/Y341E): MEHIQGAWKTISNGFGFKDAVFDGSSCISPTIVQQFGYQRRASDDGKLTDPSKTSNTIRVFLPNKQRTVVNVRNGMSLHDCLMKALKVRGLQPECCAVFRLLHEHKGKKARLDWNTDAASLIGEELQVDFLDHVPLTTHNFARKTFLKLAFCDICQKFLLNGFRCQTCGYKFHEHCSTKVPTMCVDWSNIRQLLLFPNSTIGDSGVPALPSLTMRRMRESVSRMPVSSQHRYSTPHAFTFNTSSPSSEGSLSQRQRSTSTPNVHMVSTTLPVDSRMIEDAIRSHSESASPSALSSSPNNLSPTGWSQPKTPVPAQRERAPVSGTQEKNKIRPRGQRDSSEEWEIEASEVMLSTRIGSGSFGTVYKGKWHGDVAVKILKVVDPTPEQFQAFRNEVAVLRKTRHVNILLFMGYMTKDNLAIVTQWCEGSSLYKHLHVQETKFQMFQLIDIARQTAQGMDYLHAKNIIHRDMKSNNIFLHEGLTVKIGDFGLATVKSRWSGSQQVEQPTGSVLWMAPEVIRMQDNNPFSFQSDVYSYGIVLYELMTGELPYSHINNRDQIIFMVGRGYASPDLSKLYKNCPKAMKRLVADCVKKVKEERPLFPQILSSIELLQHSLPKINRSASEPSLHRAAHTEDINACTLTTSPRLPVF
Sequence of C-Raf FL (P63104 whole entry partner): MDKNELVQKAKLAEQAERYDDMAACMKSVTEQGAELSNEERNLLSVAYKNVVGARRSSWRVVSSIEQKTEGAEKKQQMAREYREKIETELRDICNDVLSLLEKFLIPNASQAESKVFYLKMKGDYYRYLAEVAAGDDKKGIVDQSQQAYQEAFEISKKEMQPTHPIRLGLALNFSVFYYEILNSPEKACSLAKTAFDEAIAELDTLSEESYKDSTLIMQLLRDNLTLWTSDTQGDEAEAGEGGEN

pIC50	SMILES
9.30	CCOc1ncc(-c2cc(NC(=O)c3ccnc(C(C)(C)F)c3)cnc2C)cc1C1(C)COC1 [Example 3, N-(6′-ethoxy-2-methyl-5′-(3-methyloxetan-3-yl)-[3,3′-bipyridin]-5-yl)-2-(2-fluoropropan-2-yl)isonicotinamide]
8.70	Cc1ccc(NC(=O)c2ccnc(C(C)(F)F)c2)cc1-c1cnc(-c2cn(C)nc2C)c(C2(O)COC2)c1 [Example 12, 2-(1,1-difluoroethyl)-N-(3-(6-(1,3-dimethyl-1H-pyrazol-4-yl)-5-(3-hydroxyoxetan-3-yl)pyridin-3-yl)-4-methylphenyl)isonicotinamide]
8.40	Cc1ccc(NC(=O)c2cc(C(F)(F)F)c[nH]c2=O)cc1-c1cc(OCCO)nc(C2CCOCC2)c1 [Example 252, N-(3-(2-(2-hydroxyethoxy)-6-(terahydro-2H-pyran-4-yl)pyridin-4-yl)-4-methylphenyl)-2-oxo-5-(trifluoromethyl)-1,2-dihydropyridine-3-carboxamide]
8.23	Cc1ncc(NC(=O)c2ccnc(C(C)(F)F)c2)cc1-c1cc(C2(O)COC2)cc(C2(F)COC2)c1 [Example 141, 2-(1,1-difluoroethyl)-N-(5-(3-(3-fluorooxetan-3-yl)-5-(3-hydroxyoxetan-3-yl)phenyl)-6-methylpyridin-3-yl)isonicotinamide]
8.52	Cc1ccc(NC(=O)c2cccc(C(F)(F)F)c2)cc1-c1cn(C)c(=O)c(C2COC2)n1 [Example 4, N-(4-methyl-3-(4-methyl-6-(oxetan-3-yl)-5-oxo-4,5-dihydropyrazin-2-yl)phenyl)-3-(trifluoromethyl)benzamide]
9.70	CCOc1nnc(-c2cc(NC(=O)c3cncc(C(F)(F)F)c3)ccc2C)cc1C1CCOCC1 [Example 231, N-(3-(6-ethoxy-5-(tetrahydro-2H-pyran-4-yl)pyridazin-3-yl)-4-methylphenyl)-5-(trifluoromethyl) nicotinamide]
9.22	Cc1nc2cc(C3CCOCC3)cc(-c3cc(NC(=O)c4ccnc(C(C)(C)C#N)c4)ccc3C)c2[nH]1 [Example 223, 2-(2-cyanopropan-2-yl)-N-(4-methyl-3-(2-methyl-5-(tetrahydro-2H-pyran-4-yl)-1H-benzo[d]imidazol-7-yl)phenyl) isonicotinamide]
10.00	Cc1ccc(NC(=O)c2cnnc(C(F)(F)F)c2)cc1-c1cc(OCCO)nc(C2(C)CCOCC2)c1 [Example 207, N-(3-(2-(2-hydroxyethoxy)-6-(4-methyltetrahydro-2H-pyran-4-yl)pyridin-4-yl)-4-methylphenyl)-6-(trifluoromethyl) pyridazine-4-carboxamide]
10.70	Cc1ccc(NC(=O)c2ccnc(C(F)(F)F)c2)cc1-c1cc(C2CCOCC2)c(N[C@@H](C)CO)nn1 [Example 309, (S)-N-(3-(6-((1-hydroxypropan-2-yl)amino)-5-(tetrahydro-2H-pyran-4-yl)pyridazin-3-yl)-4-methylphenyl)-2-(trifluoromethyl) isonicotinamide]
10.70	Cc1ccc(NC(=O)c2ccnc(C(F)(F)CF)c2)cc1-c1cc(OCCO)nc(C2CCOCC2)c1 [Example 268, N-(3-(2-(2-hydroxyethoxy)-6-(tetrahydro-2H-pyran-4-yl)pyridin-4-yl)-4-methylphenyl)-2-(1,1,2-trifluoroethyl) isonicotinamide]
11.00	Cc1ccc(NC(=O)c2ccnc(C(F)(F)CF)c2)cc1-c1cc(OC[C@H](O)CO)nc(C2CCOCC2)c1 [Example 273, (R)-N-(3-(2-(2,3-dihydroxypropoxy)-6-(tetrahydro-2H-pyran-4-yl)pyridin-4-yl)-4-methylphenyl)-2-(1,1,2-trifluoroethyl) isonicotinamide]
8.70	Cc1ncc(NC(=O)c2cccc(C(F)(F)F)c2)cc1-c1cc(C2CCOCC2)nc(N2CCC(O)CC2)c1 [Example 183, N-(2′-(4-hydroxypiperidin-1-yl)-2-methyl-6′-(tetrahydro-2H-pyran-4-yl)-[3,4′-bipyridin]-5-yl)-3-(trifluoromethyl) benzamide]
9.70	Cc1ccc(NC(=O)c2ccnc(C(C)(F)F)c2)cc1-c1cc(OCCO)nc(C2(CO)CCOCC2)c1 [Example 216, 2-(1,1-difluoroethyl)-N-(3-(2-(2-hydroxyethoxy)-6-(4-(hydroxymethyl)tetrahydro-2H-pyran-4-yl)pyridin-4-yl)-4-methylphenyl) isonicotinamide]
9.00	Cc1ccc(NC(=O)c2cnc(C(F)(F)F)cn2)cc1-c1cc(OCCO)nc(C2CCOCC2)c1 [Example 262, N-(3-(2-(2-hydroxyethoxy)-6-(tetrahydro-2H-pyran-4-yl)pyridin-4-yl)-4-methylphenyl)-5-(trifluoromethyl) pyrazine-2-carboxamide]
10.05	Cc1ccc(NC(=O)c2ccnc(C(F)(F)F)c2)cc1-c1cc(C2CCOCC2)nc(N2CCC(C)(N)CC2)c1 [Example 321, N-(3-(2-(4-amino-4-methylpiperidin-1-yl)-6-(tetrahydro-2H-pyran-4-yl)pyridin-4-yl)-4-methylphenyl)-2-(trifluoromethyl)isonicotinamide]
9.30	Cc1ccc(NC(=O)c2ccnc(C(F)(F)F)c2)cc1-c1cc2c(c(C3CCOCC3)c1)OC(C)(CO)C(=O)N2 (stereo not shown) [Example 200, N-(3-(2-(hydroxymethyl)-2-methyl-3-oxo-8-(tetrahydro-2H-pyran-4-yl)-3,4-dihydro-2H-benzo[b][1,4]oxazin-6-yl)-4-methylphenyl)-2-(trifluoromethyl) isonicotinamide]
9.52	Cc1ccc(NC(=O)c2cc(C(F)(F)F)c(Cl)cn2)cc1-c1cc(OC[C@H](O)CO)nc(C2CCOCC2)c1 [Example 282, (R)-5-chloro-N-(3-(2-(2,3-dihydroxypropoxy)-6-(tetrahydro-2H-pyran-4-yl)pyridin-4-yl)-4-methylphenyl)-4-(trifluoromethyl) picolinamide]
9.70	Cc1ccc(NC(=O)c2ccnc(C(C)(C)C#N)c2)cc1-c1cc(OCCO)nc(C2(CF)CCOCC2)c1 [Example 213, 2-(2-cyanopropan-2-yl)-N-(3-(2-(4-(fluoromethyl)tetrahydro-2H-pyran-4-yl)-6-(2-hydroxyethoxy)pyridin-4-yl)-4-methylphenyl) isonicotinamide]
9.52	Cc1ccc(NC(=O)c2cccc(C(F)(F)F)c2)cc1-c1cc(C2COC2)c2nccn2n1 [Example 6, N-(4-methyl-3-(8-(oxetan-3-yl)imidazo[1,2-b]pyridazin-6-yl)phenyl)-3-(trifluoromethyl)benzamide]
8.70	CCOc1ncc(-c2cc(NC(=O)c3cccc(C(F)(F)F)c3)cnc2C)cc1C1(O)CCOC1 (stereo not shown) [Example 294, N-(6′-ethoxy-5′-(3-hydroxytetrahydro-furan-3-yl)-2-methyl-[3,3′-bipyridin]-5-yl)-3-(trifluoromethyl) benzamide]
8.70	CCOc1ncc(-c2cc(NC(=O)c3ccnc(C(C)(C)C#N)c3)ccc2C)cc1C1(CO)CCOC1 (stereo not shown) [Example 289, 2-(2-cyanopropan-2-yl)-N-(3-(6-ethoxy-5-(3-(hydroxymethyl)tetrahydrofuran-3-yl)pyridin-3-yl)-4-methylphenyl) isonicotinamide]
8.05	CCOc1ncc(-c2cc(NC(=O)c3ccnc(C(C)(C)F)c3)cnc2C)cc1C1(CO)CCOC1 (stereo not shown) [Example 292, N-(6′-ethoxy-5′-(3-(hydroxymethyl)tetrahydrofuran-3-yl)-2-methyl-[3,3′-bipyridin]-5-yl)-2-(2-fluoropropan-2-yl)isonicotinamide]
